# Tested on: MV-4-11 cells
# Assay: Gene expression microarray analysis (Affymetrix PrimeView) and GSEA
# Format: cell-based, human
# Design: RFU PODN (11730768_x_at) / Fold change /veh PODN (11730768_x_at) / RFU LINC00158 (11744669_a_at) / Fold change /veh LINC00158 (11744669_a_at) / RFU DUSP10 (11751237_a_at) / Fold change /veh DUSP10 (11751237_a_at) / RFU ID3 (11757404_x_at) / Fold change /veh ID3 (11757404_x_at) / RFU PLEKHG5 (11737974_s_at) / Fold change /veh PLEKHG5 (11737974_s_at) / RFU LRRC4B (11730491_at) / Fold change /veh LRRC4B (11730491_at) / RFU GIMAP4 (11747438_a_at) / Fold change /veh GIMAP4 (11747438_a_at) / RFU KRT8 (11758183_x_at) / Fold change /veh KRT8 (11758183_x_at) / RFU CNN1 (11734310_a_at) / Fold change /veh CNN1 (11734310_a_at) / RFU VPS37D (11726825_at) / Fold change /veh VPS37D (11726825_at) / RFU C10orf10 (11716522_x_at) / Fold change /veh C10orf10 (11716522_x_at) / RFU KIR2DL2 /// KIR2DL4 /// KIR2DL5A /// KIR2DL5B /// KIR2DS1 /// KIR2DS2 /// KIR2DS3 /// KIR2DS4 /// KIR3DL3 /// KIR3DL3 /// KIR3DS1 (11738374_at) / Fold change /veh KIR2DL2 /// KIR2DL4 /// KIR2DL5A /// KIR2DL5B /// KIR2DS1 /// KIR2DS2 /// KIR2DS3 /// KIR2DS4 /// KIR3DL3 /// KIR3DL3 /// KIR3DS1 (11738374_at) / RFU C1QL1 (11718748_at) / Fold change /veh C1QL1 (11718748_at) / RFU TMPRSS4 (11747572_a_at) / Fold change /veh TMPRSS4 (11747572_a_at) / RFU HAMP (11756126_x_at) / Fold change /veh HAMP (11756126_x_at) / RFU RNFT2 (11725882_a_at) / Fold change /veh RNFT2 (11725882_a_at) / RFU NR4A2 (11747474_a_at) / Fold change /veh NR4A2 (11747474_a_at) / RFU ABCC12 (11746883_a_at) / Fold change /veh ABCC12 (11746883_a_at) / RFU TMEM136 (11760407_x_at) / Fold change /veh TMEM136 (11760407_x_at) / RFU CLDN22 /// WWC2 (11732394_at) / Fold change /veh CLDN22 /// WWC2 (11732394_at) / RFU HLA-DPB1 (11760878_x_at) / Fold change /veh HLA-DPB1 (11760878_x_at) / RFU SPINT1 (11716480_a_at) / Fold change /veh SPINT1 (11716480_a_at) / RFU GAP43 (11754022_s_at) / Fold change /veh GAP43 (11754022_s_at) / RFU A4GNT (11735810_at) / Fold change /veh A4GNT (11735810_at) / RFU PRB3 (11715151_x_at) / Fold change /veh PRB3 (11715151_x_at) / RFU TUBB4B (11761932_at) / Fold change /veh TUBB4B (11761932_at) / RFU CAPN14 (11732068_a_at) / Fold change /veh CAPN14 (11732068_a_at) / RFU TMCC2 (11721928_a_at) / Fold change /veh TMCC2 (11721928_a_at) / RFU IRGQ (11745062_a_at) / Fold change /veh IRGQ (11745062_a_at) / RFU FAM174B (11720279_a_at) / Fold change /veh FAM174B (11720279_a_at) / RFU TMPRSS4 (11748680_a_at) / Fold change /veh TMPRSS4 (11748680_a_at) / RFU FAM212B (11763350_a_at) / Fold change /veh FAM212B (11763350_a_at) / RFU PLEKHG5 (11743358_a_at) / Fold change /veh PLEKHG5 (11743358_a_at) / RFU ZSCAN30 (11745921_a_at) / Fold change /veh ZSCAN30 (11745921_a_at) / RFU CMKLR1 (11741424_a_at) / Fold change /veh CMKLR1 (11741424_a_at) / RFU LOC101060620 /// MAPK8IP1 (11723275_at) / Fold change /veh LOC101060620 /// MAPK8IP1 (11723275_at) / RFU SPTSSB (11747773_x_at) / Fold change /veh SPTSSB (11747773_x_at) / RFU PRSS12 (11739890_at) / Fold change /veh PRSS12 (11739890_at) / RFU BIN1 (11741810_x_at) / Fold change /veh BIN1 (11741810_x_at) / RFU WNT11 (11732464_a_at) / Fold change /veh WNT11 (11732464_a_at) / RFU C10orf10 (11716521_a_at) / Fold change /veh C10orf10 (11716521_a_at) / RFU C5orf56 (11738089_at) / Fold change /veh C5orf56 (11738089_at) / RFU CYB561 (11721691_x_at) / Fold change /veh CYB561 (11721691_x_at) / RFU ANKRD19P (11752326_a_at) / Fold change /veh ANKRD19P (11752326_a_at) / RFU OR2T12 /// OR2T33 /// OR2T8 (11738714_s_at) / Fold change /veh OR2T12 /// OR2T33 /// OR2T8 (11738714_s_at) / RFU VCAN (11748164_a_at) / Fold change /veh VCAN (11748164_a_at) / RFU JSRP1 (11732532_at) / Fold change /veh JSRP1 (11732532_at) / RFU KRTAP10-11 (11738290_x_at) / Fold change /veh KRTAP10-11 (11738290_x_at) / RFU MYO3A (11730013_a_at) / Fold change /veh MYO3A (11730013_a_at) / RFU EBF3 (11725865_a_at) / Fold change /veh EBF3 (11725865_a_at) / RFU CAMK2N1 (11719241_x_at) / Fold change /veh CAMK2N1 (11719241_x_at) / RFU C5orf56 (11738088_a_at) / Fold change /veh C5orf56 (11738088_a_at) / RFU OLFML3 (11715873_a_at) / Fold change /veh OLFML3 (11715873_a_at) / RFU LOC100653217 /// NTM (11731650_a_at) / Fold change /veh LOC100653217 /// NTM (11731650_a_at) / RFU MAPK11 (11762145_a_at) / Fold change /veh MAPK11 (11762145_a_at) / RFU FIZ1 (11724087_x_at) / Fold change /veh FIZ1 (11724087_x_at) / RFU OASL (11726364_x_at) / Fold change /veh OASL (11726364_x_at) / RFU SOX15 (11748057_x_at) / Fold change /veh SOX15 (11748057_x_at) / RFU CD79A (11719716_a_at) / Fold change /veh CD79A (11719716_a_at) / RFU HIST1H1D (11736915_at) / Fold change /veh HIST1H1D (11736915_at) / RFU CASKIN2 (11723855_a_at) / Fold change /veh CASKIN2 (11723855_a_at) / RFU LOC730098 (11760151_x_at) / Fold change /veh LOC730098 (11760151_x_at) / RFU OR4N2 (11742367_at) / Fold change /veh OR4N2 (11742367_at) / RFU PRRT2 (11749266_a_at) / Fold change /veh PRRT2 (11749266_a_at) / RFU SNX32 (11753110_a_at) / Fold change /veh SNX32 (11753110_a_at) / RFU CDHR5 (11726645_a_at) / Fold change /veh CDHR5 (11726645_a_at) / RFU RCAN1 (11760418_a_at) / Fold change /veh RCAN1 (11760418_a_at) / RFU FAM167A (11723789_a_at) / Fold change /veh FAM167A (11723789_a_at) / RFU FAM26E (11764081_at) / Fold change /veh FAM26E (11764081_at) / RFU ISYNA1 (11749810_s_at) / Fold change /veh ISYNA1 (11749810_s_at) / RFU ACY1 (11761880_at) / Fold change /veh ACY1 (11761880_at) / RFU 11764098_at / Fold change /veh 11764098_at / RFU SAMD14 (11745864_x_at) / Fold change /veh SAMD14 (11745864_x_at) / RFU NPB (11741838_a_at) / Fold change /veh NPB (11741838_a_at) / RFU TMPRSS6 (11731388_a_at) / Fold change /veh TMPRSS6 (11731388_a_at) / RFU KRTAP10-2 (11738614_at) / Fold change /veh KRTAP10-2 (11738614_at) / RFU ARHGAP8 /// PRR5-ARHGAP8 (11727945_x_at) / Fold change /veh ARHGAP8 /// PRR5-ARHGAP8 (11727945_x_at) / RFU KRTAP5-7 /// NADSYN1 (11734609_at) / Fold change /veh KRTAP5-7 /// NADSYN1 (11734609_at) / RFU RASL12 (11751679_a_at) / Fold change /veh RASL12 (11751679_a_at) / RFU CDKN2B (11736163_a_at) / Fold change /veh CDKN2B (11736163_a_at) / RFU PRF1 (11729649_at) / Fold change /veh PRF1 (11729649_at) / RFU, ZNF638 /// ZNF638-IT1 / Fold change vs veh, ZNF638 /// ZNF638-IT1 / RFU, PANK3 / Fold change vs veh, PANK3 / RFU, SH3YL1 / Fold change vs veh, SH3YL1 / RFU, ZEB2 / Fold change vs veh, ZEB2 / RFU, NRIP1 / Fold change vs veh, NRIP1 / RFU, PTTG1IP / Fold change vs veh, PTTG1IP / RFU, CAPN2 / Fold change vs veh, CAPN2 / RFU, MED14 / Fold change vs veh, MED14 / RFU, SNORA58 / Fold change vs veh, SNORA58 / RFU, C1orf63 / Fold change vs veh, C1orf63 / RFU, LRRFIP1 / Fold change vs veh, LRRFIP1 / RFU, NDUFAF7 / Fold change vs veh, NDUFAF7 / RFU, SLC12A2 / Fold change vs veh, SLC12A2 / RFU, IBTK / Fold change vs veh, IBTK / RFU, ESF1 / Fold change vs veh, ESF1 / Fold change vs veh, TMEM50B / RFU, TAOK1 / Fold change vs veh, TAOK1 / RFU, ACBD3 / Fold change vs veh, ACBD3 / RFU, TMA16 / Fold change vs veh, TMA16 / RFU, RWDD3 / Fold change vs veh, RWDD3 / RFU, BCAT1 / Fold change vs veh, BCAT1 / RFU, EDEM3 / Fold change vs veh, EDEM3 / RFU, TMEM33 / Fold change vs veh, TMEM33 / RFU, WDR75 / Fold change vs veh, WDR75 / RFU, AHCTF1 / Fold change vs veh, AHCTF1 / RFU, TFRC / Fold change vs veh, TFRC / RFU, ZDHHC17 / Fold change vs veh, ZDHHC17 / RFU, NOM1 / Fold change vs veh, NOM1 / RFU, ARL8B / Fold change vs veh, ARL8B / RFU, ZBTB11 / Fold change vs veh, ZBTB11 / RFU, TAMM41 / Fold change vs veh, TAMM41 / RFU, KIAA1704 /// LOC100996395 / Fold change vs veh, KIAA1704 /// LOC100996395 / RFU, ING1 / Fold change vs veh, ING1 / RFU, TRMT61B / Fold change vs veh, TRMT61B / RFU, FUBP3 / Fold change vs veh, FUBP3 / RFU, TP53 / Fold change vs veh, TP53 / RFU, TNKS2 / Fold change vs veh, TNKS2 / RFU, ZFP14 / Fold change vs veh, ZFP14 / RFU, ACTR2 / Fold change vs veh, ACTR2 / RFU, PPP3R1 / Fold change vs veh, PPP3R1 / RFU, PIK3R1 / Fold change vs veh, PIK3R1 / RFU, HNRNPA1 / Fold change vs veh, HNRNPA1 / RFU, RNF170 / Fold change vs veh, RNF170 / RFU, ZNF28 / Fold change vs veh, ZNF28 / RFU, RNGTT / Fold change vs veh, RNGTT / RFU, OGT / Fold change vs veh, OGT / RFU, BRD1 / Fold change vs veh, BRD1 / RFU, MARS / Fold change vs veh, MARS / RFU, ZNF655 / Fold change vs veh, ZNF655 / RFU, FAHD1 / Fold change vs veh, FAHD1 / RFU, BDP1 / Fold change vs veh, BDP1 / RFU, LRRCC1 / Fold change vs veh, LRRCC1 / RFU, ARID1A / Fold change vs veh, ARID1A / RFU, ZNF146 / Fold change vs veh, ZNF146 / RFU, ZNF330 / Fold change vs veh, ZNF330 / RFU, GPN3 / Fold change vs veh, GPN3 / RFU, C9orf123 / Fold change vs veh, C9orf123 / RFU, N4BP2L2 / Fold change vs veh, N4BP2L2 / RFU, ARFIP1 / Fold change vs veh, ARFIP1 / RFU, FAM179B / Fold change vs veh, FAM179B / RFU, BCL10 / Fold change vs veh, BCL10 / RFU, UHRF1BP1L / Fold change vs veh, UHRF1BP1L / RFU, BET1 / Fold change vs veh, BET1 / RFU, CNOT2 / Fold change vs veh, CNOT2 / RFU, ZNF268 / Fold change vs veh, ZNF268 / Fold change vs veh, ZNF507 / RFU, DGCR2 / Fold change vs veh, DGCR2 / RFU, WDSUB1 / Fold change vs veh, WDSUB1 / Fold change vs veh, HSP90B1 /// MIR3652 / RFU, ADSS / Fold change vs veh, ADSS / RFU, GK / Fold change vs veh, GK / RFU, ZNF148 / Fold change vs veh, ZNF148 / RFU, TAF9 / Fold change vs veh, TAF9 / RFU, SLC1A5 / Fold change vs veh, SLC1A5 / RFU, SLMO2 / Fold change vs veh, SLMO2 / RFU, ABCC4 / Fold change vs veh, ABCC4 / RFU, LOC101060439 /// RAP1B / Fold change vs veh, LOC101060439 /// RAP1B / RFU, RFX7 / Fold change vs veh, RFX7 / RFU, GTPBP10 / Fold change vs veh, GTPBP10 / RFU, CNEP1R1 / Fold change vs veh, CNEP1R1 / RFU, BIVM-ERCC5 /// ERCC5 / Fold change vs veh, BIVM-ERCC5 /// ERCC5 / RFU, ILF3 / Fold change vs veh, ILF3 / RFU 11762660_at / Fold change /veh 11762660_at / RFU VCAN (11757783_s_at) / Fold change /veh VCAN (11757783_s_at) / RFU DDX43 (11728927_at) / Fold change /veh DDX43 (11728927_at) / RFU KRT8 (11758188_x_at) / Fold change /veh KRT8 (11758188_x_at) / RFU NKD1 (11759106_at) / Fold change /veh NKD1 (11759106_at) / RFU SRD5A1 (11742802_a_at) / Fold change /veh SRD5A1 (11742802_a_at) / RFU TPSAB1 /// TPSB2 (11721975_s_at) / Fold change /veh TPSAB1 /// TPSB2 (11721975_s_at) / RFU GSTM3 (11746129_a_at) / Fold change /veh GSTM3 (11746129_a_at) / RFU IL23R (11737362_x_at) / Fold change /veh IL23R (11737362_x_at) / RFU TMEM51 (11727254_a_at) / Fold change /veh TMEM51 (11727254_a_at) / RFU PIWIL2 (11732686_x_at) / Fold change /veh PIWIL2 (11732686_x_at) / RFU ORM1 (11744905_x_at) / Fold change /veh ORM1 (11744905_x_at) / RFU CCDC152 (11743942_at) / Fold change /veh CCDC152 (11743942_at) / RFU ECM1 (11717891_a_at) / Fold change /veh ECM1 (11717891_a_at) / RFU IL23R (11748794_a_at) / Fold change /veh IL23R (11748794_a_at) / RFU TNFAIP8L3 (11732012_x_at) / Fold change /veh TNFAIP8L3 (11732012_x_at) / RFU MBOAT4 (11741988_at) / Fold change /veh MBOAT4 (11741988_at) / RFU 11764193_at / Fold change /veh 11764193_at / RFU TMEM53 (11763286_at) / Fold change /veh TMEM53 (11763286_at) / RFU MAGEB2 (11727129_at) / Fold change /veh MAGEB2 (11727129_at) / RFU TMEM200A (11744735_a_at) / Fold change /veh TMEM200A (11744735_a_at) / RFU CCDC152 (11751479_a_at) / Fold change /veh CCDC152 (11751479_a_at) / RFU FAM211A (11726209_a_at) / Fold change /veh FAM211A (11726209_a_at) / RFU RGS16 (11746705_a_at) / Fold change /veh RGS16 (11746705_a_at) / RFU VCAN (11755009_s_at) / Fold change /veh VCAN (11755009_s_at) / RFU RHOB (11743442_s_at) / Fold change /veh RHOB (11743442_s_at) / RFU RGS16 (11720943_a_at) / Fold change /veh RGS16 (11720943_a_at) / RFU RGS16 (11720944_at) / Fold change /veh RGS16 (11720944_at) / RFU, VPS4B / Fold change vs veh, VPS4B / RFU, CREB1 / Fold change vs veh, CREB1 / RFU, DNAJC13 / Fold change vs veh, DNAJC13 / RFU, GNAQ / Fold change vs veh, GNAQ / RFU, CDK5R1 / Fold change vs veh, CDK5R1 / RFU, ZRANB3 / Fold change vs veh, ZRANB3 / RFU, CUL4A / Fold change vs veh, CUL4A / RFU, CCNY / Fold change vs veh, CCNY / RFU, UFL1 / Fold change vs veh, UFL1 / RFU, COG3 / Fold change vs veh, COG3 / RFU, DIAPH2 / Fold change vs veh, DIAPH2 / RFU, SKA2 / Fold change vs veh, SKA2 / RFU, AFF3 / Fold change vs veh, AFF3 / RFU, LMF1 / Fold change vs veh, LMF1 / RFU, IPO11 / Fold change vs veh, IPO11 / RFU, DFFB / Fold change vs veh, DFFB / RFU, FOXP1 / Fold change vs veh, FOXP1 / RFU, CARD8 / Fold change vs veh, CARD8 / RFU, STRN3 / Fold change vs veh, STRN3 / RFU, ADK / Fold change vs veh, ADK / RFU, RASSF2 / Fold change vs veh, RASSF2 / RFU, WIPF1 / Fold change vs veh, WIPF1 / RFU, LARP1B / Fold change vs veh, LARP1B / RFU, RASA1 / Fold change vs veh, RASA1 / RFU, RB1 / Fold change vs veh, RB1 / RFU, PPFIA1 / Fold change vs veh, PPFIA1 / RFU, MAT2A / Fold change vs veh, MAT2A / RFU, CCT5 / Fold change vs veh, CCT5 / RFU, WDR92 / Fold change vs veh, WDR92 / RFU, CUX1 / Fold change vs veh, CUX1 / RFU, TTC7A / Fold change vs veh, TTC7A / RFU, TMEM135 / Fold change vs veh, TMEM135 / RFU, DEPTOR / Fold change vs veh, DEPTOR / RFU, CPM / Fold change vs veh, CPM / RFU, DNAJB6 / Fold change vs veh, DNAJB6 / RFU, CACNA2D3 / Fold change vs veh, CACNA2D3 / RFU, DTX4 / Fold change vs veh, DTX4 / RFU, TFCP2 / Fold change vs veh, TFCP2 / RFU, GMCL1 /// GMCL1P1 / Fold change vs veh, GMCL1 /// GMCL1P1 / RFU, AEBP2 / Fold change vs veh, AEBP2 / RFU, SNHG1 /// SNORD22 /// SNORD25 /// SNORD26 /// SNORD27 /// SNORD28 /// SNORD29 /// SNORD31 / Fold change vs veh, SNHG1 /// SNORD22 /// SNORD25 /// SNORD26 /// SNORD27 /// SNORD28 /// SNORD29 /// SNORD31 / Fold change (Aza/veh), C12orf56 (ProbeSet 11735607_a_at) / Fold change (ACY-1035/veh), C12orf56 (ProbeSet 11735607_a_at) / Fold change (Aza/veh), FGFR1OP (ProbeSet 11751329_s_at) / Fold change (ACY-1035/veh), FGFR1OP (ProbeSet 11751329_s_at) / Fold change (Aza/veh), VPS36 (ProbeSet 11739960_a_at) / Fold change (ACY-1035/veh), VPS36 (ProbeSet 11739960_a_at) / RFU SYPL1 (11715823_x_at) / Fold change /veh SYPL1 (11715823_x_at) / RFU IGFBP7 (11715501_s_at) / Fold change /veh IGFBP7 (11715501_s_at) / RFU REEP3 (11722064_at) / Fold change /veh REEP3 (11722064_at) / RFU IGLL1 (11728026_x_at) / Fold change /veh IGLL1 (11728026_x_at): dose or concentration left out as unconfirmed
# Conditions: gene C12orf56; ACY-1035 vs DMSO; LIST F
smiles,measurement,value
Nc1ccc(-c2cccs2)cc1NC(=O)c1ccc2c(c1)cc(C1CC1)n2CCN1CCOCC1 [ACY-1035],"Fold change (ACY-1035/veh), C12orf56 (ProbeSet 11735607_a_at)",0.39

# Reference: paper PMC5218480 (PLoS ONE, 2017)
